Columns and labels:
[1] = target: Synaptic vesicular amine transporter (Rattus norvegicus, UniProt Q01827); test: Inhibition of [3H]DTBZ binding to VMAT2 in rat synaptic vesicle membrane; type: cell membranes
[2] = target: Neuronal acetylcholine receptor subunit alpha-7 (Rattus norvegicus, UniProt Q05941); test: Inhibition of [3H]MLA binding to alpha-7 nAChR in rat brain membrane; type: cell membranes
[3] = target: Sodium-dependent dopamine transporter (Rattus norvegicus, UniProt P23977); test: Inhibition of [3H]DA uptake at DAT in rat striatal synaptosomes; type: subcellular, Brain
[4] = target: Neuronal acetylcholine receptor; alpha4/beta2 (Rattus norvegicus, UniProt P09483+P12390); test: Inhibition of [3H]NIC binding to alpha-4-beta-2 nAChR in rat brain membrane; type: cell membranes
[5] = target: Sodium-dependent serotonin transporter (Rattus norvegicus, UniProt P31652); test: Inhibition of [3H]5-HT uptake at SERT in rat hippocampal synaptosomes; type: subcellular, Hippocampus
Sodium-dependent serotonin transporter, sequence (P31652 whole entry): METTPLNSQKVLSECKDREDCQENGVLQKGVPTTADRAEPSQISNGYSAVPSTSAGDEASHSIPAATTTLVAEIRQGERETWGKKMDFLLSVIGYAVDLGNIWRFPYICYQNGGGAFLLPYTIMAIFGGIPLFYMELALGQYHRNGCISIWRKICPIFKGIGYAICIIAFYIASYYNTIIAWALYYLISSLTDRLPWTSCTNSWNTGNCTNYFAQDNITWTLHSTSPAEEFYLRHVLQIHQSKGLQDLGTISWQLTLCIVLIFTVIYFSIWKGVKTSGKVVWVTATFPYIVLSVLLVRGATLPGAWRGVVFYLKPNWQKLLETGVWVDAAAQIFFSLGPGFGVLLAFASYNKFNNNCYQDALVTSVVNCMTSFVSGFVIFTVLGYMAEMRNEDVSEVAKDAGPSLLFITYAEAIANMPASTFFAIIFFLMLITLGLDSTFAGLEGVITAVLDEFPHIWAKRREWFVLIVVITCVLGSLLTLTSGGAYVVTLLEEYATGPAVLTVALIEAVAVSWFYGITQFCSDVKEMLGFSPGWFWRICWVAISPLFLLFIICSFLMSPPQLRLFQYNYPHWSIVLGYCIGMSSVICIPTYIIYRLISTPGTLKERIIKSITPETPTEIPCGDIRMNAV

Synaptic vesicular amine transporter, sequence (Q01827 whole entry): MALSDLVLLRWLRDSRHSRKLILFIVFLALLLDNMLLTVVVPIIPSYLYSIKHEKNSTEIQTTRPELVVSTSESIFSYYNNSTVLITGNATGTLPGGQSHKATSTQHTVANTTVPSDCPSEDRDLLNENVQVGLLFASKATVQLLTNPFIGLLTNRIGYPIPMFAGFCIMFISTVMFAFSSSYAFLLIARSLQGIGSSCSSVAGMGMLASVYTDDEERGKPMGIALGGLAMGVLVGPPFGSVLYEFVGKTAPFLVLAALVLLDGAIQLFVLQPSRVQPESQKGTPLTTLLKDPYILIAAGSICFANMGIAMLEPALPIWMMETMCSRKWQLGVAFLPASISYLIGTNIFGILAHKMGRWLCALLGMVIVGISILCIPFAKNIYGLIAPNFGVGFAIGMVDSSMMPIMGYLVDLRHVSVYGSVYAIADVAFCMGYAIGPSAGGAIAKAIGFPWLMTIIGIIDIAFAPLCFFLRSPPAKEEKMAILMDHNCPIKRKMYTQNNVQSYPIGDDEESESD
Sodium-dependent dopamine transporter, sequence (P23977 whole entry): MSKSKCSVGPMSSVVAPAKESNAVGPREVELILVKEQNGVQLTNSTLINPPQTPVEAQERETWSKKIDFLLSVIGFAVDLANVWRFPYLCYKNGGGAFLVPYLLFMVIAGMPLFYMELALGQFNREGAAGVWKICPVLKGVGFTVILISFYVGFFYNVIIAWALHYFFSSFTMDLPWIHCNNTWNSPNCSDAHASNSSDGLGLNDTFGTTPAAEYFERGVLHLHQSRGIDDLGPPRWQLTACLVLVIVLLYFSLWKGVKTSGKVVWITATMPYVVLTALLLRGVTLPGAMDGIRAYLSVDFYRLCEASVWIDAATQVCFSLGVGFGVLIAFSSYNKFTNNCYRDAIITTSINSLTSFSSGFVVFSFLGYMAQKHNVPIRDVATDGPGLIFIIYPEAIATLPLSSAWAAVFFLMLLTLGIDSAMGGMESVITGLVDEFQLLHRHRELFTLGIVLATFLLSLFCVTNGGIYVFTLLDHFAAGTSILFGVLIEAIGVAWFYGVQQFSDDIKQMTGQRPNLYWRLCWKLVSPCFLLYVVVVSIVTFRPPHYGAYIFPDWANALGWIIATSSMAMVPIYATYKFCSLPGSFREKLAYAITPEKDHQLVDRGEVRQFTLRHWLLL
Neuronal acetylcholine receptor subunit alpha-7, sequence (Q05941 whole entry): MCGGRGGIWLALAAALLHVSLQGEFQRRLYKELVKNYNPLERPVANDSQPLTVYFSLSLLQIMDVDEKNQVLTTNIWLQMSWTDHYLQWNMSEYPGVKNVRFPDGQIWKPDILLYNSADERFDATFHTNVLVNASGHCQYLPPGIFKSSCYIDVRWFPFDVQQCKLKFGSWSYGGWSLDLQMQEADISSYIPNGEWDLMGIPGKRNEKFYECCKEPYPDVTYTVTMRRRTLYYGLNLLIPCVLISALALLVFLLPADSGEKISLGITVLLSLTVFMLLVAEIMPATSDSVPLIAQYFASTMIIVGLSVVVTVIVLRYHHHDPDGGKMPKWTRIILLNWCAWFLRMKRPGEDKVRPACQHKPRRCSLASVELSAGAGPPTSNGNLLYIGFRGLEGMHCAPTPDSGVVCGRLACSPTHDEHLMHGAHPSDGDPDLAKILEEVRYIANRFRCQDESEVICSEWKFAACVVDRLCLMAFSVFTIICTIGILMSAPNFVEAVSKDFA
Neuronal acetylcholine receptor; alpha4/beta2, sequence (P09483 whole entry): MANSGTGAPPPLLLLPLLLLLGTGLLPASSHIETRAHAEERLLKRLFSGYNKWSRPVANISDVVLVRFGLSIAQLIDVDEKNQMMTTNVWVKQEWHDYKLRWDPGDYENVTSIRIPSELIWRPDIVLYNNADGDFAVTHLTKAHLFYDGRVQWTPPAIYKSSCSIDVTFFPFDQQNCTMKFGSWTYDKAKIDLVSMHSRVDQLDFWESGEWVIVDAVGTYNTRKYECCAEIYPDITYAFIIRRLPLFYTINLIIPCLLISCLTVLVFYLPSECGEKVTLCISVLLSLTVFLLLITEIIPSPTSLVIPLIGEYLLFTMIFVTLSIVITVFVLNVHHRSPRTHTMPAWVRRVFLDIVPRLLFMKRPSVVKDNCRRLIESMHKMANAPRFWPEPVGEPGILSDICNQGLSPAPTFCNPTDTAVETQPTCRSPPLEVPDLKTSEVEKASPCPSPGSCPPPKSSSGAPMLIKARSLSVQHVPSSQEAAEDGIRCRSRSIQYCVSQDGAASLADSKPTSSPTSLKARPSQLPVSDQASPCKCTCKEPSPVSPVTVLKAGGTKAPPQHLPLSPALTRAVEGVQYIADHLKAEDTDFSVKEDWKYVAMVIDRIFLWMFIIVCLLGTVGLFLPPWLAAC
Neuronal acetylcholine receptor; alpha4/beta2, sequence (P12390 whole entry): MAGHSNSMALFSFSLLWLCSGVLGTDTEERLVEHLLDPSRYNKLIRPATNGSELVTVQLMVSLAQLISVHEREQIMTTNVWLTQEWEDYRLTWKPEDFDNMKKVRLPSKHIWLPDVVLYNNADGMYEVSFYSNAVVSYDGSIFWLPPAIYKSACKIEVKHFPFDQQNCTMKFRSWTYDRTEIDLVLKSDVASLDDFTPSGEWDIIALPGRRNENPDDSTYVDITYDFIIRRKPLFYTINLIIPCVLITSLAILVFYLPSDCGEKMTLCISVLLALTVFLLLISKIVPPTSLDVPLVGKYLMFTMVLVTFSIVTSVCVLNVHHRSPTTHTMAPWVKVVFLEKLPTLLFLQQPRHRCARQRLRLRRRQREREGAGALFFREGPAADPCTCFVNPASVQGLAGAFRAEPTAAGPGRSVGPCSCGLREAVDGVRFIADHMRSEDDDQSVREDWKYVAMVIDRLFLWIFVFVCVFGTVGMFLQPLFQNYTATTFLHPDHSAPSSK

| SMILES | Ki [1] [µM] | Ki [2] [µM] | Ki [3] [µM] | Ki [4] [µM] | Ki [5] [µM] | IC50 [2] [µM] | IC50 [4] [µM] |
| --- | --- | --- | --- | --- | --- | --- | --- |
| CN1[C@@H](CCc2ccccc2)CCC[C@H]1C[C@H](O)c1ccccc1 | 3.09 | 39.3 | 1.39 | 1.77 | 4.27 | – | – |
| CN1[C@H](C[C@H](O)c2ccccc2)CCC[C@@H]1/C=C/c1ccccc1 | – | – | 0.11 | – | 19 | > 100 | – |
| CN1[C@@H](CCc2ccccc2)CCC[C@H]1C[C@@H](O)c1ccccc1 | 6.6 | – | 0.57 | – | 7.3 | > 100 | > 100 |
| CN1[C@@H](C[C@H](O)c2ccccc2)CCC[C@H]1/C=C/c1ccccc1 | – | – | 0.96 | – | 3.75 | > 100 | > 100 |
| CCC1(O)CC2c3cc(OC)c(OC)cc3CCN2CC1CC(C)C (configuration not stated) | 0.028 | – | – | – | – | – | – |
| CN1[C@H](C[C@@H](O)c2ccccc2)CCC[C@@H]1/C=C/c1ccccc1 | – | – | 0.29 | – | 7.5 | > 100 | > 100 |
| CN1[C@H](CCc2ccccc2)CCC[C@@H]1C[C@H](O)c1ccccc1 | 3.01 | – | 1.26 | 33.6 | 2.22 | > 100 | – |
| CN1[C@@H](C[C@@H](O)c2ccccc2)CCC[C@H]1/C=C/c1ccccc1 | – | 1.7 | – | 4.19 | 0.044 | – | – |
| CN1[C@H](CCc2ccccc2)CCC[C@@H]1C[C@@H](O)c1ccccc1 [8R-hydroxylobelane] | 1.98 | 1.21 | 1.88 | 2.36 | 0.15 | – | – |
| CN1[C@@H](CC(=O)c2ccccc2)CCC[C@H]1C[C@H](O)c1ccccc1 [LOBELINE] | – | – | 28.2 | – | 46.8 | – | – |
